Measured values taken from ChEMBL document CHEMBL1201862, “PubChem BioAssay data set” (2004).
Calls of active or inactive are those of the source.

How the values were obtained:
[1] = biological target: T1, Calpain-2 catalytic subunit (Sus scrofa, UniProt P43367); assay: pig calpain II inhibitor potency, dose response, biochemical, fluorogenic peptide substrate (AID 1420); assay type: functional
T1 sequence (P43367 whole entry): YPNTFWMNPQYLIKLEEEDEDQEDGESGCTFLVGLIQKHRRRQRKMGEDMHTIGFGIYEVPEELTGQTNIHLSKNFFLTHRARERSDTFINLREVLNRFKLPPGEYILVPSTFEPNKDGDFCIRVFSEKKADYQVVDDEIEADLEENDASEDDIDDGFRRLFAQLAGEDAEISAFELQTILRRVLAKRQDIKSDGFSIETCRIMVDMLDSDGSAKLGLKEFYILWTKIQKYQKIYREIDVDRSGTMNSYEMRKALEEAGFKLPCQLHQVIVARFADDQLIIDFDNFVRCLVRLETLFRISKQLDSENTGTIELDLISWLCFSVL

[2] = NIH-3T3 fibroblast cytotoxicity, dose response, cytotoxicity control, cell-based, fluorescence, Alamar Blue, secondary assay (AID 2327); assay type: functional;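 note: NIH-3T3 mouse fibroblasts cultured with fluconazole at 8 µg/mL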
[3] = C. albicans growth with fluconazole, confirmation, fluorescence, retest (AID 2467); assay type: functional, cell-based
[4] = biological target: T2, Fatty acid synthase (Homo sapiens, UniProt P49327); assay: FAS thioesterase domain inhibitors, dose response, biochemical, endpoint fluorescence intensity, uHTS hits (AID 624327); assay type: functional;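 note: fluorescence from hydrolysis of an O-methyl fluorescein acyl ester substrate by the enzyme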
[5] = biological target: T2, Fatty acid synthase; assay: FAS thioesterase domain inhibitors, dose response, biochemical, kinetic fluorescence intensity (AID 624326); assay type: functional;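 note: rate of fluorescence rise from hydrolysis of a fluorogenic O-methyl fluorescein ester substrate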
[6] = biological target: Cytochrome P450 2C9 (Homo sapiens, UniProt P11712)
[7] = biological target: FAD-linked sulfhydryl oxidase ALR (Homo sapiens, UniProt P55789); assay: inhibitors of human ALR sulfhydryl oxidase, dose response, biochemical, H2O2 detection, luminescence, cherry-pick (AID 493248)
[8] = biological target: T3, Rac GTPase-activating protein 1 (Homo sapiens, UniProt Q9H0H5); assay: MgcRacGAP GTPase-activating activity inhibitors, confirmation, biochemical, ADP Hunter fluorescence, primary and confirmatory (AID 624330); assay type: functional
T3 sequence (Q9H0H5 whole entry): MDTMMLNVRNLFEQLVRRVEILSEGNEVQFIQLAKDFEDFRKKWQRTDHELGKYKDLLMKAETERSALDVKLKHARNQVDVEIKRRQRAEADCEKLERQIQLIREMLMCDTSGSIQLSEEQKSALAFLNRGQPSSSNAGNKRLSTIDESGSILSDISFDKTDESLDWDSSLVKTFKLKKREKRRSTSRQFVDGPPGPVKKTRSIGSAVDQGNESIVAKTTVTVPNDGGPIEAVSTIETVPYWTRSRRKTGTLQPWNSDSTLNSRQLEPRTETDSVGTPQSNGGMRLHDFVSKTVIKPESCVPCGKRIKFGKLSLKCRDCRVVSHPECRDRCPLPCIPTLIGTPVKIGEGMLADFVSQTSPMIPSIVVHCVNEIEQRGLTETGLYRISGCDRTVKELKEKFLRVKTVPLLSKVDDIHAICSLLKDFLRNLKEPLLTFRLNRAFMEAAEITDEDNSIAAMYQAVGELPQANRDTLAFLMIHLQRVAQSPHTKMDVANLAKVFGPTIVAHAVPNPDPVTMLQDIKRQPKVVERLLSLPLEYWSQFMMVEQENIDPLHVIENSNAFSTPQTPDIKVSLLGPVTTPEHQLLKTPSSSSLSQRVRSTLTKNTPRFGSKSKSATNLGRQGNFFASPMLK

[9] = biological target: Large T antigen (Simian virus 40, UniProt P03070); assay type: functional, Betapolyomavirus macacae;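 note: Confirmatory-stage PubChem screen for compounds that inhibit SV40 T antigen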
[10] = Luminescence Cell-Based Dose Retest to Confirm Inhibitors of Cancer Stem Cells. [Related pubchem assays (depositor defined):AID2717, AID2721]; assay type: functional; conditions: Homo sapiens
[11] = biological target: Cytochrome P450 3A4 (Homo sapiens, UniProt P08684);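 note: CYP3A4 tested as one member of a cytochrome P450 panel screen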
[12] = THP-1 cell cytotoxicity, dose response, cytotoxicity control for non-replicating M. tuberculosis project (AID 489025); assay type: functional
[13] = Luminescence Cell-Based Dose Confirmation HTS to Identify Activators of 5'UTR Stem-Loop Driven Alpha-Synuclein mRNA Translation in H4 Neuroglioblastoma Cells. [Related pubchem assays: 1829 (Project Summary), 1814 (Primary HTS)]; assay type: functional
[14] = Luminescence Cell-Based Dose Response HTS to Identify Activators of Luciferase Translation or Activity in H4 […] Cells. [Related pubchem assays: 1829 (Project Summary), 1814 (Primary HTS)]; assay type: functional
[15] = cells; assay type: functional, cell-based
[16] = system: H4; assay: Luminescence Cell-Based Dose Response HTS to Identify Activators of 5'UTR Stem-Loop Driven Prion Protein mRNA Translation in H4 Neuroglioblastoma Cells. [Related pubchem assays: 1829 (Project Summary), 1814 (Primary HTS)]; assay type: functional; conditions: Homo sapiens
[17] = cells; assay type: functional, cell-based; remark: listed apart in the source
[18] = biological target: Genome polyprotein (dengue virus type 2, UniProt P29990); assay: Dengue-2 NS5 methyltransferase inhibitors, primary screen, biochemical, confirmation dose response (AID 588689); assay type: functional
[19] = biological target: Cytochrome P450 2C19 (Homo sapiens, UniProt P33261); assay: Cytochrome panel assay with activity outcomes. Panel member name: p450-cyp2c19 Compounds with AC50 equal or less than 10 uM are considered active; assay type: functional; conditions: read-out: AC50
[20] = biological target: T4, Cytochrome P450 1A2 (Homo sapiens, UniProt P05177);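 note: PubChem cytochrome P450 panel assay, CYP1A2 panel member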
T4 sequence (P05177 whole entry): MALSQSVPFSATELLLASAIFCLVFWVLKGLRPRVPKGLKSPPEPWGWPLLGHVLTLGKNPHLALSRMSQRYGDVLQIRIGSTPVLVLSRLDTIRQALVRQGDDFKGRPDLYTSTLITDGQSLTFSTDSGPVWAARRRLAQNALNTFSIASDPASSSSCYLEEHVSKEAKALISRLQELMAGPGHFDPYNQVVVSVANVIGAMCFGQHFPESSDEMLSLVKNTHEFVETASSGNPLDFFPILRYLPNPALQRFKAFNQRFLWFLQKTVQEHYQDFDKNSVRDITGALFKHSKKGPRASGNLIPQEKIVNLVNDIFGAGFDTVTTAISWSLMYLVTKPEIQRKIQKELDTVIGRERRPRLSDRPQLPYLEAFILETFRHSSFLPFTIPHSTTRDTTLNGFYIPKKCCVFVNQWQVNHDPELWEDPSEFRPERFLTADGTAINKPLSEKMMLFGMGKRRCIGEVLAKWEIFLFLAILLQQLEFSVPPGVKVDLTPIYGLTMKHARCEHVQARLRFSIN

[21] = inhibitors of intracellular T. cruzi replication, confirmation, NIH3T3 host cells, beta-gal luminescence (AID 2044); assay type: functional, cell-based;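 note: intracellular parasites grown in NIH/3T3 mouse fibroblasts as host cells; luminescent beta-galactosidase reporter signal from transgenic T. cruzi replicating inside host cells; inhibitors lower the luminescence signal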
[22] = cytotoxicity toward NIH3T3 fibroblasts, dose response, counter-screen, cell-based, ATP luminescence, mouse fibroblasts (AID 2010); assay type: functional;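 note: cells exposed to compound for about 90 hours before reading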
[23] = HEp-2 cell cytotoxicity, dose response, cytotoxicity control for RSV inhibitor project, HTS (AID 2410); assay type: functional; conditions: human respiratory syncytial virus
[24] = system: INS1; assay: beta cell apoptosis inhibitors, cytokine rescue, dose response, luminescence, retest (AID 449756); assay type: functional, cell-based; conditions: Rattus norvegicus;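 note: cell death triggered by IL-1 beta plus TNF-alpha plus IFN-gamma mixture; protective hits raise ATP signal compared with cytokine alone wells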

Cytochrome P450 2C9, sequence (P11712 whole entry): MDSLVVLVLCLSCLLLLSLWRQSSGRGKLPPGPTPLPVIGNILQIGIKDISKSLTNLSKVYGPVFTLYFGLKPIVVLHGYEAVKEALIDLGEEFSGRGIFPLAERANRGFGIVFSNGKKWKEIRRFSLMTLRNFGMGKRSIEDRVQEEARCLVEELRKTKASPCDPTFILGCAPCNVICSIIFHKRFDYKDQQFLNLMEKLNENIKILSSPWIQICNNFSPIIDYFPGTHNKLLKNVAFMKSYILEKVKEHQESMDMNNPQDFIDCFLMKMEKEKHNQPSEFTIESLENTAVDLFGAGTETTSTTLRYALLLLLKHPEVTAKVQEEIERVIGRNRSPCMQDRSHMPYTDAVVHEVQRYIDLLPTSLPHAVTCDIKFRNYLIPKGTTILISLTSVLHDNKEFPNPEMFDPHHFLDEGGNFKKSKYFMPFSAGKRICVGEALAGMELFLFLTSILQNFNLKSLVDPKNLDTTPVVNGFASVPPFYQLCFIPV
Large T antigen, sequence (P03070 whole entry): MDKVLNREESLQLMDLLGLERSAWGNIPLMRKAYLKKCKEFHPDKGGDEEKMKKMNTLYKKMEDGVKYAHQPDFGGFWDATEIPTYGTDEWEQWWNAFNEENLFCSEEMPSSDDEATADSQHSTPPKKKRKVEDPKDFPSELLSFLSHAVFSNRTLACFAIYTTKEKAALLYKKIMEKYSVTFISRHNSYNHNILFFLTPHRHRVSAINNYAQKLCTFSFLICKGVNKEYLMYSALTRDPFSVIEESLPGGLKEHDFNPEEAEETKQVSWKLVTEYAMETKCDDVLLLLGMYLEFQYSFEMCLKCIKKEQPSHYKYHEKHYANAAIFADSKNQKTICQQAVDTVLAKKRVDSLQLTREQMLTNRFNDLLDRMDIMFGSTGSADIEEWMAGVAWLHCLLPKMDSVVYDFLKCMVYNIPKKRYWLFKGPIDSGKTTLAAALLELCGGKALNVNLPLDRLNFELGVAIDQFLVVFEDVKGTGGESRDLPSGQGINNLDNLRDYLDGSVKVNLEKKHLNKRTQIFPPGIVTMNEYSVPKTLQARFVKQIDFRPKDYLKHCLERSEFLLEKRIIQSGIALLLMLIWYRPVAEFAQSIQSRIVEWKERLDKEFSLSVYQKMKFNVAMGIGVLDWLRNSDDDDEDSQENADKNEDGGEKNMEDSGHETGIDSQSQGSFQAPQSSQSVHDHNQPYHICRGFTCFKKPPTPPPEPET
FAD-linked sulfhydryl oxidase ALR, sequence (P55789 whole entry): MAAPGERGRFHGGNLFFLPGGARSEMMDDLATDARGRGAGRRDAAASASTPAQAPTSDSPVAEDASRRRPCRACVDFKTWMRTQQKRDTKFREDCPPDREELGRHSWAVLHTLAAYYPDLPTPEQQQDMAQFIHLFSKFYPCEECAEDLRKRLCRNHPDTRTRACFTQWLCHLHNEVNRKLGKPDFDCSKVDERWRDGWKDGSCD
T2 sequence (P49327 whole entry, the tested form may be a part): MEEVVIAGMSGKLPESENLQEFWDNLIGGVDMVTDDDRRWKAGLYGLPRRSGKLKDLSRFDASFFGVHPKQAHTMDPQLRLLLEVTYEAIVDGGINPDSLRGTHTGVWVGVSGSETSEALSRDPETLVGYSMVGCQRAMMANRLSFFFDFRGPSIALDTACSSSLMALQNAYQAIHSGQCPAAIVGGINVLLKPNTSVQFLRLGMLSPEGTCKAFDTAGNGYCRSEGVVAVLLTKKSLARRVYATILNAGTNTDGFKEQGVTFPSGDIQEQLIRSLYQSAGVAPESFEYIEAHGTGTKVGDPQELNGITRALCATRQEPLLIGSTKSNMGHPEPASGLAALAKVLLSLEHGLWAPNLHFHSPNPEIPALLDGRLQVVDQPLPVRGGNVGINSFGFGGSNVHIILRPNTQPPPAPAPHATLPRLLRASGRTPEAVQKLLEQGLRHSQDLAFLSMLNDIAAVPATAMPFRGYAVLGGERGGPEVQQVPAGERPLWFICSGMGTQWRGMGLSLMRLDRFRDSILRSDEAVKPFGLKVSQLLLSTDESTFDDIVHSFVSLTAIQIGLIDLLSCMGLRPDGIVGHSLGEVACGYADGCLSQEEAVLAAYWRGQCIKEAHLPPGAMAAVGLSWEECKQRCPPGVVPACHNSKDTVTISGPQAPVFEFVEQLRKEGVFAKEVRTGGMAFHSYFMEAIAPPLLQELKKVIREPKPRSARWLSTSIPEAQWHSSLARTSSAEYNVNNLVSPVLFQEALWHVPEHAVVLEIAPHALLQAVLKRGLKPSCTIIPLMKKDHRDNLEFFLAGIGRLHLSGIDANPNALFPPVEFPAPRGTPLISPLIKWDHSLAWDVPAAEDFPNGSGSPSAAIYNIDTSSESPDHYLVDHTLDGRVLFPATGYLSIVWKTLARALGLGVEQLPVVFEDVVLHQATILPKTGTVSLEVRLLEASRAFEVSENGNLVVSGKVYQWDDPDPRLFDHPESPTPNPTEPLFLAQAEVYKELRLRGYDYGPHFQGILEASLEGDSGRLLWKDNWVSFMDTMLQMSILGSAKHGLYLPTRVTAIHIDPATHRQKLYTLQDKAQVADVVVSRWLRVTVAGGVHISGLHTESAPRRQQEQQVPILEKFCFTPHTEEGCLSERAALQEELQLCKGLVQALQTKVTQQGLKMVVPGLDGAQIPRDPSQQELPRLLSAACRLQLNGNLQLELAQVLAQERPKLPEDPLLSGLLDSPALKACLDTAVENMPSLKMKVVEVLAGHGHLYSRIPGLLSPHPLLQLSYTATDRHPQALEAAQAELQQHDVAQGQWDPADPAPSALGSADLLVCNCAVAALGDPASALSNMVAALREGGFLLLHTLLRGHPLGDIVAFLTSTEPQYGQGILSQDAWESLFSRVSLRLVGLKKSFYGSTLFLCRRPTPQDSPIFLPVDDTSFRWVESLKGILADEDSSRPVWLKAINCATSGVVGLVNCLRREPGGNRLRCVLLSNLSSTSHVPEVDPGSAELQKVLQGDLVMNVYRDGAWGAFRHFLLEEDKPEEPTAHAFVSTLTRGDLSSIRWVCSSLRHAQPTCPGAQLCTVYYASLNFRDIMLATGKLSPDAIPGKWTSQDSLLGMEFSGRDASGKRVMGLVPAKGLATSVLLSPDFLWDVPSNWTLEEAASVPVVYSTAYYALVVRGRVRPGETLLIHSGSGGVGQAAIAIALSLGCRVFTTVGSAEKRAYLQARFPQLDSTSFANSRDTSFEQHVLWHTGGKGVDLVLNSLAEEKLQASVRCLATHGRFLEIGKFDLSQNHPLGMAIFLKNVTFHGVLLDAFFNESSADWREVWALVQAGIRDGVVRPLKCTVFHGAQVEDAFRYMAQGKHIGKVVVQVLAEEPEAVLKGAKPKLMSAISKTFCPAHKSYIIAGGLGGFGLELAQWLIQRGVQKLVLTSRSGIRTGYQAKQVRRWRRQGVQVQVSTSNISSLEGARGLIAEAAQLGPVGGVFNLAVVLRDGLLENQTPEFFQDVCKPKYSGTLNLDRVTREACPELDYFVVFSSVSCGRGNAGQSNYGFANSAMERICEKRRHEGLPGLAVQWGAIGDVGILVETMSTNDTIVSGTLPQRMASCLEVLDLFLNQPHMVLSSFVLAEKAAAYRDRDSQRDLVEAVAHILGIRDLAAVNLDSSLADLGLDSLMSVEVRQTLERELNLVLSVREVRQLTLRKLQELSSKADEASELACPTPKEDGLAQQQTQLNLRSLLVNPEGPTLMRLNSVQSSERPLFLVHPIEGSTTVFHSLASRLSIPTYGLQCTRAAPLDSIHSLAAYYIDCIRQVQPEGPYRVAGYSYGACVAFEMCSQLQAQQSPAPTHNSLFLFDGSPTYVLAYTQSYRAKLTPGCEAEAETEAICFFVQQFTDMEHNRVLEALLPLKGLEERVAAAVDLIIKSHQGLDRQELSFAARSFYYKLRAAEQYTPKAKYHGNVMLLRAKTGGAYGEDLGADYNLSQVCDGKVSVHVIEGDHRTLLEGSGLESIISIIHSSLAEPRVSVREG
Cytochrome P450 2C19, sequence (P33261 whole entry): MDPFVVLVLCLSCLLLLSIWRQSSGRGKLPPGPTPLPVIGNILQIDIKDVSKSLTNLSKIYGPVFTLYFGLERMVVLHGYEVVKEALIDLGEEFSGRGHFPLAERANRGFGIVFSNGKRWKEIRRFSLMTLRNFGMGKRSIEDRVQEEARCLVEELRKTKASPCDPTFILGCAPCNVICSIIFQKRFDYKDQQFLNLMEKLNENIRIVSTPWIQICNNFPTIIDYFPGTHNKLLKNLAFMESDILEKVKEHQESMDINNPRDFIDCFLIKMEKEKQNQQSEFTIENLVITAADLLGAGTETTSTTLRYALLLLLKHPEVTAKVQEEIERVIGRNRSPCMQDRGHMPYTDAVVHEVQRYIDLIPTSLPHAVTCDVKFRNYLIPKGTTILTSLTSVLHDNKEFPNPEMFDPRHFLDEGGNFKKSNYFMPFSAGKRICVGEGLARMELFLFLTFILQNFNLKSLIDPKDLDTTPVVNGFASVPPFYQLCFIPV
Cytochrome P450 3A4, sequence (P08684 whole entry): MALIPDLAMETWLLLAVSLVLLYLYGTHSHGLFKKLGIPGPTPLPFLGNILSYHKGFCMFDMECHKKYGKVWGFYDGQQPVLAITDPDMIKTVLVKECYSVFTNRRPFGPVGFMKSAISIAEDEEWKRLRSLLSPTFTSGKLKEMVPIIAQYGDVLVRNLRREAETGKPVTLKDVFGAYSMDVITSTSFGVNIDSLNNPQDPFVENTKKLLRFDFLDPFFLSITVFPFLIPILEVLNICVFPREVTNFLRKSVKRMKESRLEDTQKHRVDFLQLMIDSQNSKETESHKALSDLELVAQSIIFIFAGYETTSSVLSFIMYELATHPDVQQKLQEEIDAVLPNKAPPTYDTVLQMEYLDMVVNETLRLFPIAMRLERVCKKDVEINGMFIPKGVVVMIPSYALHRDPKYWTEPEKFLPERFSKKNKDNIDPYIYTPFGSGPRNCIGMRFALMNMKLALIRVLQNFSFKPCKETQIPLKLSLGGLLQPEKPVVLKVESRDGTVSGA

O=[N+]([O-])c1ccc(NCc2ccccc2)nc1
IC50 [1]: 34.1 µM (not active)

COCCN(C(=O)CSc1nnc(-c2cccc(C)c2)n1C)c1c(N)n(Cc2ccccc2)c(=O)[nH]c1=O
EC50 [2]: > 160 µM (inactive) | EC50 [3]: > 38 µM (not active)

Cc1ccc(C(=O)N/C(=C\c2cccc([N+](=O)[O-])c2)C(=O)Nc2cccc(C(=O)O)c2)cc1
IC50 [4]: 15.1 µM (active) | IC50 [5]: 8.2 µM (active)

CC(C)NC(=O)c1ccc(-c2cccc(C(F)(F)F)c2)o1
AC50 [6]: inconclusive

O=C(CNCc1ccco1)Nc1ccc(N2CCCCCC2)cc1
AC50 [7]: 0.224 µM (active) | IC50 [8]: 84.4 µM (active)

CCCn1c(CCC(=O)O)ccc1-c1cccs1
AC50 [7]: 8.5 µM (active)

Oc1nc2cc(NCc3ccc(F)cc3)ccc2[nH]1
IC50 [9]: 13.2 µM (active)

O=S(=O)(Nc1ccc(-c2csc(-c3ccccc3)n2)cc1)c1ccccc1
AC50 [10]: 5.04 µM (active) | IC50 [4]: 9.18 µM (active) | IC50 [5]: 8.85 µM (active)

Cc1cc(C)nc(Nc2n[nH]c(COc3cccc4ccccc34)n2)n1
AC50 [11]: 2.24 µM (inconclusive) | AC50 [6]: inconclusive

COc1cccc(-c2nnc(S)n2Cc2ccco2)c1OC
AC50 [7]: 3.65 µM (active)

Cc1ccc(-c2ccc(/C=N/NC(=O)CN3CCCC3)o2)cc1Cl
CC50 [12]: 37.8 µM (active)

COc1ccc(NC(=O)c2[nH]cnc2C(=O)N[C@H](C)c2ccccc2)cc1
IC50 [4]: 10.9 µM (active) | IC50 [5]: 11.5 µM (active)

CCCCNC(=O)c1cc(-c2ccc(F)cc2)on1
EC50 [13]: 11.9 µM (active) | EC50 [14]: 24.3 µM (active) | EC50 [15]: 8.85 µM (active) | EC50 [16]: 13.1 µM (active) | EC50 [17]: 45 µM (active)

C1=Cc2ccccc2Nc2ccccc21 [IMINOSTILBENE]
IC50 [9]: 14.3 µM (active) | IC50 [8]: 14.9 µM (active)

CCC(C(=O)O)N1C(=O)/C(=C/C(C)=C/c2ccccc2)SC1=S (centres undefined)
IC50 [18]: 37.8 µM (active)

C=C(C)CC1Nc2ccccc2NC1CC(=C)C (centres undefined)
AC50 [7]: 5.56 µM (active)

Cc1ccc(C(=O)Nc2ccc(N3CCOCC3)nc2)cc1
AC50 [19]: 2.82 µM (inconclusive) | AC50 [20]: 17.8 µM (inconclusive) | AC50 [6]: inconclusive

Nc1cc(S(=O)(=O)N2CCCCC2)ccc1Oc1ccccc1
IC50 [1]: 20.8 µM (not active)

S=C(NCc1ccc(Cl)cc1)NC1CCN(Cc2ccccc2)CC1
EC50 [21]: 2.86 µM (active) | IC50 [1]: 18.6 µM (not active) | EC50 [22]: > 30 µM (not active)

COc1ccccc1NC(=O)c1sc2ncn(Cc3ccccc3C)c(=O)c2c1C
AC50 [6]: inconclusive

COC(=O)c1ccc(COc2cc([N+](=O)[O-])cc3cccnc23)o1
IC50 [4]: 13.3 µM (active) | IC50 [5]: 11.6 µM (active)

CC(C)(C)c1ccc(C(=O)Nc2cccc([N+](=O)[O-])c2)cc1
CC50 [23]: 5.38 µM (active) | IC50 [1]: 2.13 µM (not active)

Cc1ccc(S(=O)(=O)Nc2ccccc2C=O)cc1
AC50 [6]: inconclusive

COc1cc(/C=N/NC(=O)c2ccncc2)ccc1O
IC50 [9]: 6.8 µM (active)

O=C1CC(SC(=NCc2ccc3c(c2)OCO3)Nc2ccccc2)C(=O)N1c1ccccc1 (centres undefined)
IC50 [1]: > 50 µM (not active)

Cn1c(N)c(C(=O)COC(=O)c2ncc(Cl)c(Cl)c2Cl)c(=O)n(C)c1=O
IC50 [1]: 9.79 µM (active)

CCOC(=O)N1CCN(Cc2nc3ccc([N+](=O)[O-])cc3c(=O)n2-c2cccc(OC)c2)CC1
IC50 [4]: 3.46 µM (active) | IC50 [5]: 3.04 µM (active)

O=c1c(-c2ccc(O)cc2)coc2cc(O[C@@H]3O[C@H](CO)[C@@H](O)[C@H](O)[C@H]3O)ccc12 [DAIDZIN]
IC50 [9]: > 100 µM (active)

COc1cccc(OC)c1C(=O)Nc1ccc(N2CCCCC2)cc1
AC50 [7]: 7.85 µM (active)

O/N=C(\c1ccc2c(c1)OCCO2)C1CCCCC1
IC50 [1]: 25.1 µM (not active)

CC1=NOC(=O)/C1=C\c1ccc(-c2ccc(Br)cc2C(=O)O)o1
IC50 [18]: 20.1 µM (active)

COc1ccc([N+](=O)[O-])cc1NC(=O)CCCOc1ccccc1
IC50 [4]: 7.3 µM (active) | IC50 [5]: 8.62 µM (active)

C=CCOc1ccc(CNc2ccc3[nH]c(O)nc3c2)cc1OCC
IC50 [9]: 20.5 µM (active)

N#C/C(=C\c1ccc(O)c(O)c1)C(=O)NCc1ccccc1
IC50 [9]: 14.6 µM (active) | AC50 [19]: 25.1 µM (inconclusive) | AC50 [6]: inconclusive

CCCCN1C(=O)NC(=O)/C(=C(\C)NCCc2ccccc2)C1=O
IC50 [1]: 17.7 µM (not active)

CCN(Cc1ccccc1)C(=O)COC(=O)c1cc(Cl)nc(Cl)c1
IC50 [4]: 9.66 µM (active) | IC50 [5]: 9.26 µM (active)

Sc1nncn1/N=C/c1cccc(Oc2ccccc2)c1
AC50 [7]: 2.09 µM (active)

FC(F)(F)c1cccc(N2CCN(CC3CC4C=CC3C4)CC2)c1 (centres undefined)
AC50 [20]: 11.2 µM (inconclusive) | AC50 [11]: 39.8 µM (inconclusive) | AC50 [6]: inconclusive

COc1ccccc1CNC(=O)CCN1C(=O)COc2ccc(C)cc21
AC50 [6]: inconclusive

O=C(COc1ccccc1[N+](=O)[O-])N/N=C/c1ccc(O)cc1
IC50 [9]: 9.26 µM (active) | IC50 [8]: 80.8 µM (active)

CC1(C)C2CCC1(C)C(OCC[N+](C)(C)CC(=O)OC1CCCCC1)C2 (centres undefined)
EC50 [2]: > 150 µM (inactive) | EC50 [3]: 0.743 µM (active)

O=C(N/N=C\c1ccccc1OCc1ccccc1)c1ccco1
CC50 [12]: 39.6 µM (active)

COc1cccc(-n2c(SCC(=O)OC(C)C)nnc2-c2cccnc2)c1
IC50 [1]: > 50 µM (not active)

Nc1ccc2oc3ccc(N)cc3c(=O)c2c1
AC50 [7]: 1.07 µM (active)

Cc1ccc(Nc2c3c(nc4ccccc24)CCC3)cc1
EC50 [15]: > 350 µM (not active) | EC50 [17]: > 350 µM (not active) | AC50 [24]: 8.95 µM (active)
